Laboratory results reported in US6033891A, “Nucleic acids encoding polypeptides having cellobiose dehydrogenase activity” (Novo Nordisk Biotech, Inc., priority 1999, dated 2000).
Like-named read-outs stand apart in the source and are kept apart here.

Biological target: T1, Humicola insolens cellobiose dehydrogenase, wild type (major form, 92 kDa, pI 4.0, purified from CELLUZYME), SEQ ID NO:2 (Mycothermus thermophilus, UniProt Q9P8H5)
T1 construct: mature 22-785 after 21-residue signal peptide
T1 sequence (Q9P8H5 22-785): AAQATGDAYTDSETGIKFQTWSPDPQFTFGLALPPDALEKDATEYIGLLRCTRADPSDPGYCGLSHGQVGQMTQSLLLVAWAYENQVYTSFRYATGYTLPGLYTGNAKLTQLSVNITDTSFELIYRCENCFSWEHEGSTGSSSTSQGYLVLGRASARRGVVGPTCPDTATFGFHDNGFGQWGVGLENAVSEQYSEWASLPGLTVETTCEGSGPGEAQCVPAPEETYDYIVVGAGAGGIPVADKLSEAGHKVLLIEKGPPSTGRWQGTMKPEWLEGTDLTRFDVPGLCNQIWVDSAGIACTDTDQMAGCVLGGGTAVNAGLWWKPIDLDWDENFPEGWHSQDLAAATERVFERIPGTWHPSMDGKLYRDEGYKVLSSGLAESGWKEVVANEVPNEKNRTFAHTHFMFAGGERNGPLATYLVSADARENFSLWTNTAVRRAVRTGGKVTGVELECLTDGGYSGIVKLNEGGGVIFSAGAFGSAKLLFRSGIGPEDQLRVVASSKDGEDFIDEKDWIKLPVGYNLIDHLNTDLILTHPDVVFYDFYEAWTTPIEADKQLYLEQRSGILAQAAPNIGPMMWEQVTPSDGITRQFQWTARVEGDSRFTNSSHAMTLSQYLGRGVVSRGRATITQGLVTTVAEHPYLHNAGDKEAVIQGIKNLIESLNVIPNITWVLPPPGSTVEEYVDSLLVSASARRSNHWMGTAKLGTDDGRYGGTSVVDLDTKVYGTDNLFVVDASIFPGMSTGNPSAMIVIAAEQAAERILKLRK
Assay: Steady-state kinetics of cellobiose dehydrogenase with electron donors and acceptors (Lineweaver-Burke plots)
Format: biochemical
Conditions: 0.1 M sodium phosphate pH 7.5, 40° C.; for kcat (electron donor sugar) / kcat (electron acceptor): mol of oxidized cellobiose/s/mol of enzyme
Procedure: All absorption spectra and kinetic measurements were recorded on a Hewlett-Packard 8452A Diode Array Spectrophotometer in 0.75 ml black cuvettes with 1 cm optical path. The fluorescence spectra were recorded on a PERKIN ELMER LS 50.
Potassium ferricyanide (Merck): ε420 =970 M^-1.cm^-1, 3,5-di-tert-butyl-1,2-benzoquinone (Merck): ε410 =1,400 M^-1.cm^-1, Methylene Blue (Merck): ε610 =42,000 M^-1.cm^-1, cytochrome c (Sigma, from horse heart): ε550 =8,000 M^-1.cm^-1.
All measurements were performed in 0.1 M sodium phosphate pH 7.5 buffer at 40° C. […] The reactions were monitored for 400 s as changes in absorbance at the appropriate wavelength (see above). The benzoquinone was dissolved in ethanol to a concentration of 10 mM and diluted in phosphate buffer to the appropriate concentration. The catalytic constants (kcat) were expressed as mol of oxidized cellobiose/s/mol of enzyme. One equivalent of DCPIP, Methylene Blue, or benzoquinone oxidizes one equivalent of cellobiose whereas two equivalents of cytochrome c or ferricyanide oxidizes one equivalent of cellobiose. The kinetic constants were determined using Lineweaver-Burke plots and were the result of dual determinations.

[1] = sugar + 90 μM DCPIP, read-out: Km (electron donor sugar)
[2] = electron acceptor + 225 μM cellobiose
[3] = electron acceptor + 225 μM cellobiose, read-out: Km (electron acceptor)

Compound	kcat (electron donor sugar) (sugar + 90 μM DCPIP)	Km [1]	kcat (electron acceptor) [2]	Km [3]
OC[C@H]1O[C@@H](O[C@H]2[C@H](O)[C@@H](O)[C@H](O[C@H]3[C@H](O)[C@@H](O)[C@H](O[C@H]4[C@H](O)[C@@H](O)[C@H](O[C@H]5[C@H](O)[C@@H](O)C(O)O[C@@H]5CO)O[C@@H]4CO)O[C@@H]3CO)O[C@@H]2CO)[C@H](O)[C@@H](O)[C@@H]1O (stereo partly drawn) [Cellopentaose]	8.3 s⁻¹			
OC[C@H]1O[C@H](O[C@H]2[C@H](O)[C@@H](O)[C@H](O)O[C@@H]2CO)[C@H](O)[C@@H](O)[C@@H]1O [Maltose]	0.83 s⁻¹	11000 µM		
OC[C@H]1O[C@@H](O[C@H]2[C@H](O)[C@@H](O)C(O)O[C@@H]2CO)[C@H](O)[C@@H](O)[C@@H]1O (stereo partly drawn) [Cellobiose]	10 s⁻¹	11 µM		
CC(=O)N[C@H]1C(O)O[C@H](CO)[C@@H](O[C@@H]2O[C@H](CO)[C@H](O)[C@H](O)[C@H]2O)[C@@H]1O (stereo partly drawn) [N-Acetyllactosamine, N-acetyllactosamine]	0 s⁻¹			
OC1OC[C@@H](O[C@@H]2OC[C@@H](O)[C@H](O)[C@H]2O)[C@H](O)[C@H]1O (stereo partly drawn) [Xylobiose]	2.15 s⁻¹			
OC[C@H]1OC(O)[C@H](O)[C@@H](O)[C@@H]1O (stereo partly drawn) [Glucose]	0 s⁻¹			
O=C1C(Cl)=CC(=Nc2ccc(O)cc2)C=C1Cl [DCPIP, 2,6-dichlorophenolindophenol]			12 s⁻¹	26 µM
CN(C)c1ccc2nc3ccc(=[N+](C)C)cc-3sc2c1 [Methylene Blue]			1.85 s⁻¹	18 µM
CC(=O)N[C@H]1[C@H](O[C@H]2[C@H](O)[C@@H](NC(C)=O)C(O)O[C@@H]2CO)O[C@H](CO)[C@@H](O)[C@@H]1O (stereo partly drawn) [N,N-Diacetylchitobiose, N,N-diacetylchitobiose]	0 s⁻¹			
OC[C@H]1O[C@@H](O[C@H]2[C@H](O)[C@@H](O)C(O)O[C@@H]2CO)[C@H](O)[C@@H](O)[C@H]1O (stereo partly drawn) [Lactose]	10 s⁻¹	51 µM		
